We go through 36 substances from patent publication US10517889B2, “Modulators of SMAD7 expression” (Ionis Pharmaceuticals, Inc., priority 2017, dated 2019).

Strand notation (5' to 3'): a small letter for the sugar, then the base; units joined by * are phosphorothioate-linked, units joined directly phosphodiester-linked; [ ] holds rarer units or linkages, { } end groups; capitals alone tell only the bases. k = constrained ethyl (cEt); [5mC] = 5-methylcytosine; d = 2'-deoxy (DNA)

In the data set the test system is human SMAD7 mRNA. The data set can be described thus: Antisense inhibition of human SMAD7 mRNA expression in Hep3B cells by 3-10-3 cEt gapmers, 10,000 nM, electroporation (Example 2). It counts as cell-based. Conditions: approximately 24 hours. Here is the method:
Antisense oligonucleotides were designed to target human SMAD7 mRNA and were tested for their effects on SMAD7 mRNA expression in vitro. The antisense oligonucleotides were tested in a series of experiments that had similar culture conditions, as described below. ION 771576, described in the studies above and which is a 5-10-5 MOE gapmer, was also included in these assays. Cultured Hep3B cells at a density of 20,000 cells per well were transfected using electroporation with 10,000 nM antisense oligonucleotide. After a treatment period of approximately 24 hours, RNA was isolated from the cells and SMAD7 mRNA levels were measured by quantitative real-time PCR. Primer probe set RTS5062 was used to measure human SMAD7 mRNA levels. SMAD7 mRNA levels were adjusted according to total RNA content, as measured by RIBOGREEN®. Results are presented as percent inhibition of SMAD7 mRNA expression, relative to untreated control cells.
The newly designed chimeric antisense oligonucleotides in the Tables below were designed as 3-10-3 cEt gapmers. The gapmers are 16 nucleosides in length, wherein the central gap segment comprises often 2′-deoxynucleosides and is flanked by wing segments on the 5′ direction and the 3′ direction comprising three nucleosides each. Each nucleoside in the 5′ wing segment and each nucleoside in the 3′ wing segment has a cEt sugar modification. The internucleoside linkages throughout each gapmer are phosphorothioate (P═S) linkages. All cytosine residues throughout each gapmer are 5-methylcytosines.
“Start site” indicates the 5′-most nucleoside to which the gapmer is targeted in the human gene sequence. “Stop site” indicates the 3′-most nucleoside to which the gapmer is targeted human gene sequence. […] Some of the oligonucleotides presented were complementary to SMAD7 mRNA sequences RefSeqNo. NM_001190821.1 (designated herein as SEQ ID NO: 3) or RefSeqNo. NM_001190822.1 (designated herein as SEQ ID NO: 4), and are presented in a separate table shown below.

Setting [1] is: Hep3B cells, electroporation with 10,000 nM antisense oligonucleotide, primer probe set RTS5062, relative to untreated control cells.
[2] abbreviates: Hep3B cells, electroporation, 10,000 nM antisense oligonucleotide, RTS5062, relative to untreated control cells.
The mark [3] stands for this setting: Hep3B cells, electroporation with 10,000 nM antisense oligonucleotide, SMAD7 mRNA by RT-PCR (RTS5062), relative to untreated control cells.
Setting [4] is: Hep3B cells, 10,000 nM antisense oligonucleotide, electroporation, RT-PCR primer probe set RTS5062, relative to untreated control cells.
Setting [5] is: SMAD7 mRNA, Hep3B cells, electroporation with 10,000 nM antisense oligonucleotide, primer probe set RTS5062, relative to untreated control cells.
The mark [6] stands for this setting: SMAD7 mRNA, Hep3B cells, 10,000 nM antisense oligonucleotide, electroporation, primer probe set RTS5062, relative to untreated control cells.
The mark [7] stands for this setting: Hep3B cells, electroporation with 10,000 nM antisense oligonucleotide, RTS5062, percent inhibition of SMAD7 mRNA relative to untreated control cells.

As to “798995 (antisense kA*k[5mC]*kT*d[5mC]*dA*d[5mC]*dA*d[5mC]*dT*d[5mC]*dA*d[5mC]*dA*k[5mC]*kA*k[5mC]) [compound 798995]”, under setting [1], the % Inhibition (in general, how much of the control response was suppressed) was 0%.

Consider “799009 (kT*k[5mC]*k[5mC]*d[5mC]*d[5mC]*dA*dT*d[5mC]*dT*dG*d[5mC]*d[5mC]*dG*k[5mC]*kT*k[5mC]; antisense) [compound 799009]”, for which the “% inhibition of SMAD7 mRNA expression” value under setting [1] was 62%.

For “798656 (k[5mC]*kG*k[5mC]*dG*dG*d[5mC]*d[5mC]*d[5mC]*dG*d[5mC]*dG*d[5mC]*d[5mC]*k[5mC]*kT*kG; antisense) [compound 798656]”, the “% inhibition of SMAD7 mRNA expression” value under setting [1] was found to be 10%.

For the substance “799773 (k[5mC]*kG*k[5mC]*dT*dA*dG*dG*dT*d[5mC]*dA*d[5mC]*dA*d[5mC]*kT*k[5mC]*kA; antisense) [compound 799773]”, the “% inhibition of SMAD7 mRNA expression” value under setting [2] came to 43%.

As for “830054 (kT*kG*kG*dG*dT*dG*dA*dG*dT*dA*dA*d[5mC]*d[5mC]*kA*kG*k[5mC]; antisense) [compound 830054]”, the “% Inhibition” value under setting [3] is listed as 48%.

For the substance “799897 (antisense kT*k[5mC]*kT*d[5mC]*dT*dT*dA*d[5mC]*d[5mC]*dT*d[5mC]*dA*d[5mC]*k[5mC]*k[5mC]*kA) [compound 799897]”, the “% Inhibition” value under setting [4] is 27%.

On to “799508 (antisense kG*k[5mC]*kA*dA*dT*dT*dA*dA*dA*dG*d[5mC]*dA*dA*kA*kA*k[5mC]) [compound 799508]”, for which, under setting [3], the “% Inhibition” value is 0%.

In the case of “829961 (kT*kG*kA*dT*dT*dA*dT*dT*dA*dA*dT*dG*dG*kT*k[5mC]*kT; antisense) [compound 829961]”, the “% Inhibition” value under setting [5] is given as 14%.

With “829780 (antisense k[5mC]*kG*kG*d[5mC]*d[5mC]*dA*d[5mC]*d[5mC]*dT*dG*dA*dA*d[5mC]*kA*k[5mC]*kT) [compound 829780]”, the “% Inhibition” value under setting [6] is on record as 37%.

“799291 (antisense kG*k[5mC]*kT*dG*dA*dT*dT*dA*dT*dT*dA*dA*dT*kG*kG*kT) [compound 799291]”: the “% Inhibition” value under setting [7] is listed as 0%.

Turning to “799974 (kG*kA*k[5mC]*dT*d[5mC]*d[5mC]*dA*dG*dT*dG*d[5mC]*d[5mC]*dA*kA*kT*k[5mC]; antisense) [compound 799974]”, under setting [4], the “% Inhibition” value is given as 23%.

“799358 (kA*kG*k[5mC]*dA*d[5mC]*dA*dA*dA*dT*dA*d[5mC]*dA*dT*kG*kA*kA; antisense) [compound 799358]”: under setting [1], the “% inhibition of SMAD7 mRNA expression” value turned out to be 52%.

Turning to “799924 (antisense k[5mC]*kA*kA*dG*d[5mC]*d[5mC]*dT*dA*d[5mC]*dA*dT*dA*dT*kT*kT*k[5mC]) [compound 799924]”, the “% Inhibition” value under setting [3] is given as 22%.

For “772715 (kA*kG*k[5mC]*dT*dA*dG*dG*dT*dG*dA*dT*dA*dA*k[5mC]*kA*k[5mC]; antisense) [compound 772715]”, the “% Inhibition” value under setting [6] is listed as 0%.

As to “800093 (antisense kT*kT*kG*dA*dA*dG*dG*d[5mC]*d[5mC]*dA*dG*d[5mC]*dT*k[5mC]*k[5mC]*kT) [compound 800093]”, the “% Inhibition” value under setting [4] is given as 48%.

“829724 (antisense kG*kG*k[5mC]*dA*dT*dG*d[5mC]*dG*d[5mC]*d[5mC]*dA*dG*dT*k[5mC]*kT*k[5mC]) [compound 829724]”: under setting [6], the “% Inhibition” value amounted to 54%.

As for “799892 (antisense kG*k[5mC]*kA*dT*d[5mC]*dA*dT*dT*dA*dA*dG*d[5mC]*d[5mC]*kA*kA*kT) [compound 799892]”, the “% Inhibition” value under setting [4] is 54%.

Turning to “799815 (antisense k[5mC]*kT*k[5mC]*dT*dT*dG*dA*dT*dG*dA*dT*d[5mC]*d[5mC]*kT*k[5mC]*kA) [compound 799815]”, the “% inhibition of SMAD7 mRNA expression” value under setting [2] is listed as 68%.

On to “829835 (k[5mC]*kA*kG*dT*dG*dT*dG*dA*d[5mC]*d[5mC]*dG*dA*dT*k[5mC]*k[5mC]*k[5mC]; antisense) [compound 829835]”, for which the “% Inhibition” value under setting [5] is given as 52%.

Regarding “799972 (k[5mC]*kA*k[5mC]*dA*dA*dG*dG*dA*d[5mC]*d[5mC]*d[5mC]*dT*dT*kG*k[5mC]*kT; antisense) [compound 799972]”, the “% Inhibition” value under setting [4] came out at 0%.

As for “799011 (k[5mC]*kA*kA*dA*dA*d[5mC]*dA*dA*dA*dG*dA*dG*d[5mC]*kA*k[5mC]*kG; antisense) [compound 799011]”, the “% inhibition of SMAD7 mRNA expression” value under setting [1] is 35%.

Consider “799333 (kA*kG*kA*dA*dA*dA*d[5mC]*d[5mC]*dT*dG*dG*dA*dA*kG*kG*kG; antisense) [compound 799333]”, for which, under setting [3], the “% Inhibition” value came to 24%.

For “799662 (antisense k[5mC]*kG*kT*dG*dA*dG*d[5mC]*dA*d[5mC]*dT*dT*d[5mC]*dT*kG*kT*k[5mC]) [compound 799662]”, under setting [7], the “% Inhibition” value was determined as 55%.

Turning to “798926 (antisense k[5mC]*kA*kA*dA*dG*dT*dA*dG*dT*dT*dT*dG*dA*kA*kG*kT) [compound 798926]”, under setting [4], the “% Inhibition” value was 17%.

As for “799104 (antisense kA*kG*kT*d[5mC]*d[5mC]*dG*dG*dG*dA*dA*dA*dA*dA*k[5mC]*k[5mC]*kT) [compound 799104]”, the “% inhibition of SMAD7 mRNA expression” value under setting [1] came out at 40%.

For “829749 (antisense kT*k[5mC]*k[5mC]*dT*d[5mC]*dG*d[5mC]*d[5mC]*dG*d[5mC]*d[5mC]*dG*dG*kG*k[5mC]*kG) [compound 829749]”, the “% Inhibition” value under setting [6] came to 26%.

“799814 (antisense k[5mC]*k[5mC]*kT*d[5mC]*dA*d[5mC]*dT*dT*dA*dG*d[5mC]*d[5mC]*dT*kG*k[5mC]*kA) [compound 799814]”: the “% inhibition of SMAD7 mRNA expression” value under setting [2] came out at 0%.

On to “799478 (antisense k[5mC]*k[5mC]*k[5mC]*dT*dA*d[5mC]*d[5mC]*dA*d[5mC]*d[5mC]*d[5mC]*d[5mC]*dT*kG*kT*kG) [compound 799478]”, for which the “% inhibition of SMAD7 mRNA expression” value under setting [1] worked out at 17%.

In the case of “798740 (antisense kT*kT*kG*dA*dG*d[5mC]*dA*d[5mC]*d[5mC]*dG*dA*dG*dT*kG*k[5mC]*kG) [compound 798740]”, under setting [3], the “% Inhibition” value is reported as 56%.

With “798771 (k[5mC]*k[5mC]*kG*dA*dG*dG*dA*dA*dT*dG*d[5mC]*d[5mC]*dT*kG*kA*kG; antisense) [compound 798771]”, under setting [3], the “% Inhibition” value stood at 62%.

Regarding “799025 (k[5mC]*kG*k[5mC]*dT*dT*dG*dG*dG*dA*d[5mC]*dT*dG*d[5mC]*kA*kA*kA; antisense) [compound 799025]”, the “% inhibition of SMAD7 mRNA expression” value under setting [1] is given as 10%.

For “798673 (antisense kG*kG*k[5mC]*d[5mC]*d[5mC]*dG*dG*dG*d[5mC]*dA*dG*dG*dA*kG*k[5mC]*kG) [compound 798673]”, the “% inhibition of SMAD7 mRNA expression” value under setting [1] amounted to 15%.

For the substance “830009 (antisense kG*kT*kG*dT*dT*dA*dA*dA*dG*d[5mC]*dT*dG*dA*kG*k[5mC]*k[5mC]) [compound 830009]”, the “% Inhibition” value under setting [5] is listed as 52%.

Regarding “798766 (k[5mC]*kT*kG*dA*dA*d[5mC]*dA*d[5mC]*dT*dT*dT*dG*d[5mC]*kA*k[5mC]*kA; antisense) [compound 798766]”, the “% Inhibition” value under setting [3] was determined as 34%.

Turning to “798657 (k[5mC]*k[5mC]*kG*d[5mC]*dG*d[5mC]*dG*dG*d[5mC]*d[5mC]*d[5mC]*dG*d[5mC]*kG*k[5mC]*k[5mC]; antisense) [compound 798657]”, the “% inhibition of SMAD7 mRNA expression” value under setting [1] was found to be 0%.

“800090 (antisense k[5mC]*kA*k[5mC]*d[5mC]*dT*dA*dT*dG*d[5mC]*dG*dA*dT*dG*kG*kT*k[5mC]) [compound 800090]”: the “% Inhibition” value under setting [4] was 0%.
